Laboratory results taken from patent US20130303509A1, “NAMPT INHIBITORS” (AbbVie Inc., priority 2012, published 2013).
pIC50: −log10 of the molar value.

Test system: PC3 cells
Assay: NAMPT Cell Proliferation Assay
Assay type: cell-based
Details: Homo sapiens, PC-3, 120 h, 5 days incubation, cell viability by Cell Titer Glo
How it was run: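 Seeded at 500 cells/well in RPMI with 10% heat-inactivated FBS and left to attach overnight at 37° C, 5% CO2. Compounds were added as 10-fold dilutions […] for 5 days, then viability was read by CellTiter-Glo. IC50s came from sigmoidal fits of percent inhibition.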

SMILES | pIC50
Cc1ccc(N2CC(C(=O)Nc3ccc(C4CCN(C(=O)c5ccccc5)CC4)cc3)C2)c(F)n1 [Example 668, N-[4-(1-benzoylpiperidin-4-yl)phenyl]-1-(2-fluoro-6-methylpyridin-3-yl)azetidine-3-carboxamide] | < 5.00
O=C(Nc1ccc(C2CCN(C(=O)C3CCOCC3)CC2)cc1)C1CN(c2ccnnc2)C1 [Example 146, 1-(pyridazin-4-yl)-N-{4-[1-(tetrahydro-2H-pyran-4-ylcarbonyl)piperidin-4-yl]phenyl}azetidine-3-carboxamide] | 7.15
CCC(C)C(=O)N1CCC(c2ccc(NC(=O)C3CN(c4cccnn4)C3)cc2)CC1 (stereo not shown) [Example 319, N-{4-[1-(2-methylbutanoyl)piperidin-4-yl]phenyl}-1-(pyridazin-3-yl)azetidine-3-carboxamide] | 8.91
COc1ccccc1C(=O)N1CCC(S(=O)(=O)c2ccc(NC(=O)C3CN(c4cccnn4)C3)cc2)CC1 [Example 570, N-(4-{[1-(2-methoxybenzoyl)piperidin-4-yl]sulfonyl}phenyl)-1-(pyridazin-3-yl)azetidine-3-carboxamide] | 6.20
CC(C)c1ccc(C(=O)N2CCC(c3ccc(NC(=O)[C@H]4CCN(c5cccnn5)C4)cc3)CC2)cc1 [Example 729, (3S)-N-(4-{1-[4-(propan-2-yl)benzoyl]piperidin-4-yl}phenyl)-1-(pyridazin-3-yl)pyrrolidine-3-carboxamide] | 7.87
Cc1ncccc1N1CC(C(=O)Nc2ccc(C3CCN(C(=O)c4ccccc4Cl)CC3)cc2)C1 [Example 151, N-{4-[1-(2-chlorobenzoyl)piperidin-4-yl]phenyl}-1-(2-methylpyridin-3-yl)azetidine-3-carboxamide] | 7.22
CC1(Cn2cc(-c3ccc(NC(=O)C4CN(c5cccnn5)C4)cc3)cn2)CCOCC1 [Example 748, N-(4-{1-[(4-methyltetrahydro-2H-pyran-4-yl)methyl]-1H-pyrazol-4-yl}phenyl)-1-(pyridazin-3-yl)azetidine-3-carboxamide] | 8.59
O=C(Nc1ccc(OC2CCN(C(=O)Cc3ccccc3F)CC2)cc1)C1CN(c2cccnn2)C1 [Example 247, N-[4-({1-[(2-fluorophenyl)acetyl]piperidin-4-yl}oxy)phenyl]-1-(pyridazin-3-yl)azetidine-3-carboxamide] | 8.10
Cc1ccccc1C(=O)N1CC[C@@H](Oc2ccc(NC(=O)[C@H]3CCN(c4cccnn4)C3)cc2)C1 [Example 779, (3S)-N-(4-{[(3R)-1-(2-methylbenzoyl)pyrrolidin-3-yl]oxy}phenyl)-1-(pyridazin-3-yl)pyrrolidine-3-carboxamide] | 8.83
CC(C)CCC(=O)N1CC(Oc2ccc(NC(=O)C3CN(c4ccnnc4)C3)cc2)C1 [Example 263, N-(4-{[1-(4-methylpentanoyl)azetidin-3-yl]oxy}phenyl)-1-(pyridazin-4-yl)azetidine-3-carboxamide] | 7.23
CCCCC(=O)N1CCC(c2ccc(NC(=O)C3CN(c4cccnn4)C3)cc2)CC1 [Example 318, N-[4-(1-pentanoylpiperidin-4-yl)phenyl]-1-(pyridazin-3-yl)azetidine-3-carboxamide] | 8.57
CC[C@H](C)C(=O)N1CC(Oc2ccc(NC(=O)C3CN(c4ccnnc4)C3)cc2)C1 [Example 265, N-[4-({1-[(2S)-2-methylbutanoyl]azetidin-3-yl}oxy)phenyl]-1-(pyridazin-4-yl)azetidine-3-carboxamide] | 7.15
O=C(Nc1ccc(C2CCN(C(=O)C3(c4ccccc4)CC3)CC2)cc1)[C@H]1CCN(c2cccnn2)C1 [Example 702, (3S)-N-(4-{1-[(1-phenylcyclopropyl)carbonyl]piperidin-4-yl}phenyl)-1-(pyridazin-3-yl)pyrrolidine-3-carboxamide] | 8.68
Cc1ccc(OCC(=O)N2CCC(c3ccc(NC(=O)[C@H]4CCN(c5cccnn5)C4)cc3)CC2)cc1 [Example 636, (3S)-N-(4-{1-[(4-methylphenoxy)acetyl]piperidin-4-yl}phenyl)-1-(pyridazin-3-yl)pyrrolidine-3-carboxamide] | 7.08
Cc1ncccc1N1CC(C(=O)Nc2ccc(OC3CCN(C(=O)CC4CCOCC4)CC3)cc2)C1 [Example 4, 1-(2-methylpyridin-3-yl)-N-(4-{[1-(tetrahydro-2H-pyran-4-ylacetyl)piperidin-4-yl]oxy}phenyl)azetidine-3-carboxamide] | 6.95

Continued by rising pIC50, values first:

pIC50 | SMILES
6.15 | CC1CC1C(=O)N1CCC(c2ccc(C(=O)N[C@H]3CCN(c4cccnn4)C3)s2)CC1 (stereo partly drawn) [Example 762, 5-{1-[(2-methylcyclopropyl)carbonyl]piperidin-4-yl}-N-[(3S)-1-(pyridazin-3-yl)pyrrolidin-3-yl]thiophene-2-carboxamide]
6.55 | O=C(Nc1ccc(S(=O)(=O)C2CCN(C(=O)Cc3cc(F)cc(F)c3)CC2)cc1)C1CN(c2cccnn2)C1 [Example 585, N-[4-({1-[(3,5-difluorophenyl)acetyl]piperidin-4-yl}sulfonyl)phenyl]-1-(pyridazin-3-yl)azetidine-3-carboxamide]
7.07 | CC(C)(C)n1cc(-c2ccc(NC(=O)[C@H]3CCN(c4cccnn4)C3)cc2)cn1 [Example 773, (3S)-N-[4-(1-tert-butyl-1H-pyrazol-4-yl)phenyl]-1-(pyridazin-3-yl)pyrrolidine-3-carboxamide]
7.74 | O=C(Nc1ccc(C2CCN(C(=O)CC3CCCC3)CC2)cc1)C1CN(c2ccnnc2)C1 [Example 144, N-{4-[1-(cyclopentylacetyl)piperidin-4-yl]phenyl}-1-(pyridazin-4-yl)azetidine-3-carboxamide]
7.84 | CCC(=O)N1CCC(c2ccc(NC(=O)[C@H]3CCN(c4cccnn4)C3)cc2)CC1 [Example 658, (3S)-N-[4-(1-propanoylpiperidin-4-yl)phenyl]-1-(pyridazin-3-yl)pyrrolidine-3-carboxamide]
8.11 | O=C(Nc1ccc(O[C@@H]2CCN(C(=O)c3cccc(OC(F)(F)F)c3)C2)cc1)C1CN(c2cccnn2)C1 [Example 504, 1-(pyridazin-3-yl)-N-[4-({(3R)-1-[3-(trifluoromethoxy)benzoyl]pyrrolidin-3-yl}oxy)phenyl]azetidine-3-carboxamide]
8.17 | Cc1ccc(C(=O)N2CCC(c3ccc(NC(=O)C4CN(c5cccnn5)C4)cc3)CC2)cc1 [Example 441, N-{4-[1-(4-methylbenzoyl)piperidin-4-yl]phenyl}-1-(pyridazin-3-yl)azetidine-3-carboxamide]
8.17 | CCCCC(=O)N1CCC(Oc2ccc(NC(=O)C3CN(c4cccnc4)C3)cc2)CC1 [Example 34, N-{4-[(1-pentanoylpiperidin-4-yl)oxy]phenyl}-1-(pyridin-3-yl)azetidine-3-carboxamide]
8.44 | O=C(Nc1ccc(OC2CCN(C(=O)CCC(F)(F)F)CC2)cc1)C1CN(c2cccnc2)C1 [Example 51, 1-(pyridin-3-yl)-N-(4-{[1-(4,4,4-trifluorobutanoyl)piperidin-4-yl]oxy}phenyl)azetidine-3-carboxamide]
8.54 | O=C(Nc1ccc(C2CCN(C(=O)c3ccccc3)CC2)cc1)[C@H]1CCN(c2cccnn2)C1 [Example 311, (3S)—N-[4-(1-benzoylpiperidin-4-yl)phenyl]-1-(pyridazin-3-yl)pyrrolidine-3-carboxamide]
